Experimental data published in the NIST ThermoML archive (doi:10.1021/acs.jced.8b00509).
Values joined by “and” are separate entries in the source; they are usually repeats but may differ in a detail not shown here. Equal values may be shown once.

Experiments:
[1] = mn = molality of the nth substance listed, in mol/kg; settings: 100 kPa, Liquid; for viscosity: Capillary tube (Ostwald / Ubbelohde) method; for speed of sound: Frequency=3 MHz, Single path-length method; for mass density: Vibrating tube method
[2] = 100 kPa, Liquid; for viscosity: Capillary tube (Ostwald / Ubbelohde) method

CN(C)C(=N)NC(=N)N.Cl [N,N-dimethylimidodicarbonimidic diamide hydrochloride] + O
[1]
Settings | mass density, m1 = 0.005 [kg/m3] | mass density, m1 = 0.01 [kg/m3] | mass density, m1 = 0.05 [kg/m3] | speed of sound, m1 = 0.005 [m/s] | speed of sound, m1 = 0.01 [m/s] | speed of sound, m1 = 0.05 [m/s] | viscosity, m1 = 0.005 [mPa·s] | viscosity, m1 = 0.01 [mPa·s] | viscosity, m1 = 0.05
293.15 K | 998.35 | 998.57 | 999 | 1483 | 1483.3 | 1483.7 | 1.006 | 1.01 | 1.014 mPa·s
298.15 K | 997.2 | 997.4 | 997.91 | 1497 | 1497.3 | 1497.7 | 0.891 | 0.893 | 0.895 mPa·s and 0.8947 mPa·s
303.15 K | 995.72 | 995.99 | 996.53 | 1509.4 | 1509.7 | 1510 | 0.799 | 0.801 | 0.804 mPa·s
308.15 K | 994.19 | 994.37 | 994.92 | 1520 | 1520.3 | 1520.7 | 0.722 | 0.725 | 0.728 mPa·s and 0.7276 mPa·s
313.15 K | 992.38 | 992.54 | 993.1 | 1529.1 | 1529.4 | 1529.7 | 0.655 | 0.657 | 0.659 mPa·s

O [water]
[2]
Settings | viscosity [mPa·s]
293.15 K | 1.002
298.15 K | 0.89
303.15 K | 0.797
308.15 K | 0.719
313.15 K | 0.652

Settings | speed of sound [m/s]
[2], 313.15 K, Frequency=3 MHz, Single path-length method | 1528.8
